Assay results published in ChEMBL document CHEMBL3272309, “Potential central nervous system antitumor agents. Aziridinylbenzoquinones. 1” (J Med Chem, 1976).
Values after ≈ are worked out from the molar mass of the structure shown.

Tests used:
Mus musculus [1] = assay: Toxicity in mouse allografted with mouse P388 cells at 6.25 mg/kg, ip qd administered from day 1 to 9 post intracerebral tumor-implantation; format: organism-based; design: dose 6.25 mg/kg, route intraperitoneal; conditions: in vivo
B16 [2] = assay: Antitumor activity against mouse B16 cells allografted in mouse assessed as change in body weight at 1.56 mg/kg, ip qd administered from day 1 to 9 post ip tumor-implantation measured on day 5 relative to control; format: functional; conditions: route intraperitoneal
P388 [3] = assay: Antitumor activity against mouse P388 cells allografted in mouse assessed as change in body weight at 0.78 mg/kg, ip qd administered from day 1 to 9 post intracerebral tumor-implantation measured on day 5 relative to control; format: functional; conditions: route intraperitoneal
L1210 [4] = assay: Antitumor activity against mouse L1210 cells allografted in ip dosed mouse at optimum dose administered qd on day 1, 5 and 9 relative to control; format: functional
L1210 [5] = assay: Antitumor activity against mouse L1210 cells allografted in mouse assessed as change in body weight at 0.78 mg/kg, ip qd administered from day 1 to 9 post intracerebral tumor-implantation measured on day 5 relative to control; format: functional; conditions: route intraperitoneal
Mus musculus [6] = assay: Toxicity in mouse allografted with mouse ependymoblastoma cells at 4 mg/kg, ip qd administered from day 1 to 5 post intracerebral tumor-implantation; format: organism-based; design: dose 4 mg/kg, route intraperitoneal; conditions: in vivo
L1210 [7] = assay: Antitumor activity against mouse L1210 cells allografted in mouse assessed as mouse survival at 2 mg/kg, ip qd administered from day 1 to 9 post ip tumor-implantation relative to control; format: functional; conditions: route intraperitoneal
L1210 [8] = assay: Antitumor activity against mouse L1210 cells allografted in mouse assessed as change in body weight at 1.3 mg/kg, ip qd administered from day 1 to 9 post ip tumor-implantation measured on day 5 relative to control; format: functional; conditions: route intraperitoneal
L1210 [9] = assay: Antitumor activity against mouse L1210 cells allografted in mouse assessed as mouse survival at 0.88 mg/kg, ip qd administered from day 1 to 9 post ip tumor-implantation relative to control; format: functional; conditions: route intraperitoneal
[10] = system: Lewis lung carcinoma cell line; assay: Antitumor activity against mouse LLC cells allografted in mouse assessed as mouse survival at 1 mg/kg, ip qd administered from day 5 to 15 post sc tumor-implantation relative to control; format: functional; conditions: route subcutaneous
L1210 [11] = assay: Antitumor activity against mouse L1210 cells allografted in mouse assessed as mouse survival at 6.25 mg/kg, ip qd administered from day 1 to 9 post ip tumor-implantation relative to control; format: functional; conditions: route intraperitoneal
[12] = Antitumor activity against mouse ependymoblastoma cells allografted in mouse assessed as change in body weight at 2 mg/kg, ip qd administered from day 1 to 5 post intracerebral tumor-implantation measured on day 5 relative to control; format: functional; conditions: route intraperitoneal
[13] = Aqueous solubility of the compound; format: physicochemical
B16 [14] = assay: Antitumor activity against mouse B16 cells allografted in mouse assessed as change in body weight at 0.78 mg/kg, ip qd administered from day 1 to 9 post ip tumor-implantation measured on day 5 relative to control; format: functional; conditions: route intraperitoneal
P388 [15] = assay: Antitumor activity against mouse P388 cells allografted in mouse assessed as mouse survival at 1.56 mg/kg, ip qd administered from day 1 to 9 post intracerebral tumor-implantation relative to control; format: functional; conditions: route intraperitoneal
L1210 [16] = assay: Antitumor activity against mouse L1210 cells allografted in mouse assessed as change in body weight at 0.88 mg/kg, ip qd administered from day 1 to 9 post ip tumor-implantation measured on day 5 relative to control; format: functional; conditions: route intraperitoneal
[17] = Antitumor activity against mouse ependymoblastoma cells allografted in mouse assessed as mouse survival at 1 mg/kg, ip qd administered from day 1 to 5 post intracerebral tumor-implantation relative to control; format: functional; conditions: route intraperitoneal
L1210 [18] = assay: Antitumor activity against mouse L1210 cells allografted in mouse assessed as mouse survival at 3.12 mg/kg, ip qd administered from day 1 to 9 post intracerebral tumor-implantation relative to control; format: functional; conditions: route intraperitoneal
L1210 [19] = assay: Antitumor activity against mouse L1210 cells allografted in mouse assessed as change in body weight at 6.25 mg/kg, ip qd administered from day 1 to 9 post intracerebral tumor-implantation measured on day 5 relative to control; format: functional; conditions: route intraperitoneal
B16 [20] = assay: Antitumor activity against mouse B16 cells allografted in mouse assessed as change in body weight at 6.25 mg/kg, ip qd administered from day 1 to 9 post ip tumor-implantation measured on day 5 relative to control; format: functional; conditions: route intraperitoneal
L1210 [21] = assay: Antitumor activity against mouse L1210 cells allografted in mouse assessed as change in body weight at 3.12 mg/kg, ip qd administered from day 1 to 9 post intracerebral tumor-implantation measured on day 5 relative to control; format: functional; conditions: route intraperitoneal
[22] = Antitumor activity against mouse ependymoblastoma cells allografted in mouse assessed as mouse survival at 0.25 mg/kg, ip qd administered from day 1 to 5 post intracerebral tumor-implantation relative to control; format: functional; conditions: route intraperitoneal
P388 [23] = assay: Antitumor activity against mouse P388 cells allografted in mouse assessed as mouse survival at 1.56 mg/kg, ip qd administered from day 1 to 9 post ip tumor-implantation relative to control; format: functional; conditions: route intraperitoneal
B16 [24] = assay: Antitumor activity against mouse B16 cells allografted in mouse assessed as mouse survival at 0.78 mg/kg, ip qd administered from day 1 to 9 post ip tumor-implantation relative to control; format: functional; conditions: route intraperitoneal
L1210 [25] = assay: Antitumor activity against mouse L1210 cells allografted in ip dosed mouse assessed as optimum dose administered qd on day 1, 5 and 9; format: functional
[26] = Therapeutic ratio in ip dosed mouse allografted with mouse ependymoblastoma cells; format: ADME, organism-based; conditions: in vivo, read-out: TI
L1210 [27] = assay: Antitumor activity against mouse L1210 cells allografted in mouse assessed as change in body weight at 2 mg/kg, ip qd administered from day 1 to 9 post ip tumor-implantation measured on day 5 relative to control; format: functional; conditions: route intraperitoneal
[28] = Antitumor activity against mouse ependymoblastoma cells allografted in mouse assessed as mouse survival at 4 mg/kg, ip qd administered from day 1 to 5 post intracerebral tumor-implantation relative to control; format: functional; conditions: route intraperitoneal
P388 [29] = assay: Antitumor activity against mouse P388 cells allografted in mouse assessed as change in body weight at 1.56 mg/kg, ip qd administered from day 1 to 9 post intracerebral tumor-implantation measured on day 5 relative to control; format: functional; conditions: route intraperitoneal
[30] = system: Lewis lung carcinoma cell line; assay: Antitumor activity against mouse LLC cells allografted in mouse assessed as mouse survival at 2 mg/kg, ip qd administered from day 5 to 15 post sc tumor-implantation relative to control; format: functional; conditions: route subcutaneous
P388 [31] = assay: Antitumor activity against mouse P388 cells allografted in mouse assessed as change in body weight at 0.78 mg/kg, ip qd administered from day 1 to 9 post ip tumor-implantation measured on day 5 relative to control; format: functional; conditions: route intraperitoneal
L1210 [32] = assay: Antitumor activity against mouse L1210 cells allografted in mouse assessed as mouse survival at 0.78 mg/kg, ip qd administered from day 1 to 9 post intracerebral tumor-implantation relative to control; format: functional; conditions: route intraperitoneal
[33] = system: Lewis lung carcinoma cell line; assay: Antitumor activity against mouse LLC cells allografted in mouse assessed as change in body weight at 1 mg/kg, ip qd administered from day 5 to 15 post sc tumor-implantation measured on day 5 relative to control; format: functional; conditions: route subcutaneous
L1210 [34] = assay: Antitumor activity against mouse L1210 cells allografted in mouse assessed as mouse survival at 6.25 mg/kg, ip qd administered from day 1 to 9 post intracerebral tumor-implantation relative to control; format: functional; conditions: route intraperitoneal

CCOC(=O)NC1=C(N2CC2)C(=O)C(NC(=O)OCC)=C(N2CC2)C1=O [DIAZIQUONE]
Activity (Mus musculus [1]): Toxic | Activity (B16 [2]): -3.6 g | Activity (P388 [3]): -0.4 g | T/C (L1210 [4]): 154% | Activity (L1210 [5]): -0.5 g | Activity (Mus musculus [6]): Toxic | T/C (L1210 [7]): 201% | Activity (L1210 [8]): -2.3 g | T/C (L1210 [9]): 132% | T/C [10]: 89% | T/C (L1210 [11]): 127% | Activity [12]: -2.7 g | solubility [13]: 500 µg/mL (≈ 1370 µM) | Activity (B16 [14]): -2.2 g | T/C (P388 [15]): 137% | Activity (L1210 [16]): -1.4 g | T/C [17]: 226% | T/C (L1210 [18]): 179% | Activity (L1210 [19]): -2.8 g | Activity (B16 [20]): -4.4 g | Activity (L1210 [21]): -2.1 g | T/C [22]: 130% | T/C (P388 [23]): 212% | T/C (B16 [24]): 113% | Activity (L1210 [25]): 6.25 mg/kg | selectivity ratio [26]: 4 | Activity (L1210 [27]): -3.8 g | T/C [28]: 376% | Activity (P388 [29]): -1.1 g | T/C [30]: 134% | Activity (P388 [31]): -2.4 g | T/C (L1210 [32]): 103% | Activity [33]: -0.1 g | T/C (L1210 [34]): 103%
